Experimental data reported in US12582720B2, “Compound for preventing or treating lipid metabolism-related diseases” (Fudan University, priority 2020, dated 2026).

Tests used:
LC3 = LC3 (Homo sapiens, UniProt Q9GZQ8); conditions: reported by Li et al., Nature 575, 203-209 (2019); cited from earlier work
[1] = system: lipid droplets in human normal liver cell line QSG7701; test: Endogenous lipid droplets in human normal liver cell line QSG7701; type: cell-based; conditions: QSG7701, no induction, 5 μM, 24 h
Experimental: 10% FBS+90% RPMI 1640 culture medium was used for cultivation, cell incubator culture condition of 37° C. and 5% CO2 was used. Cells were plated as 50 thousands/well (12 well plate was plated with aseptic treated slides). When cells grew to a confluence of 80-90%, the compound (Compound 1A or Compound 2A, at a concentration of 5 μM) was added for treatment, and LC3 binding Compound A1, A5, lipid droplet probe Sudan IV as well as DMSO acted as a control. […]. In the compounds of present disclosure, LC3 binding moiety was covalently linked with lipid droplet binding moiety, and thus could achieve the effect of reducing liver cell endogenous lipid droplet.

LC3B = LC3B (Homo sapiens, UniProt Q9GZQ8); test: MST detection of affinity activity with LC3B; type: binding; set-up: His8 (with TEV site) (N); made in house; host or cells: Escherichia coli BL21(DE3)pLysS; conditions: MST; read-out: Kd, equilibrium dissociation constant between the LC3 binding compound and LC3B
Summary of the method: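 Microscale thermophoresis uses recombinant GST-LC3B labelled with RED-NHS fluorophore at 500 nM. Buffer is 20 mM HEPES pH 7.4 with 150 mM NaCl. Readings are taken at 40% infrared laser power and 20% LED power.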

[2] = system: lipid droplets in wild type MEF cells; test: Reduction of OA-induced lipid droplets in wild type MEF cells (BODIPY 493/503 staining); type: cell-based, mouse; conditions: MEF, unconjugated compound 5 μM
Experimental: (5) OA-BSA stock solution was prepared into OA-BSA working solution (50× final concentration, 200 μM), and 40 μl of OA-BSA working solution was added to each well to induce lipid droplets. For the non-OA induction group, 40 μl of 10% BSA solution was added to the control well, and the amount of BSA was the same as that of the experimental group.
Compounds were formulated into DMSO stock solutions. Stock compounds were diluted with DMSO into the indicated concentrations of working solutions prior to use in the treatment of cells. After induction of the lipid droplets with OA for the indicated time, the test compounds were added to the cells respectively. Control wells were replaced with the equal volume of DMSO. Unless otherwise stated, the compounds were diluted into 10× solutions using the culture medium and added to the culture medium for 24 hours of incubation. Cells were treated with compounds in a 37° C. incubator with 5% CO2.
(3) The original medium in the multi-well plates was removed, washed and the cells was fixed, 1 ml of the BODIPY solution prepared in (1) was added to each well, and stained for 15 minutes. The staining solution was aspirated and washed with 1×PBS.
(5) The coverslips laid in the multi-well plates were removed, and imaged with the Zeiss 880 confocal microscope after mounted, and analyzed the size and number of lipid droplets with ImageJ.
Wild type MEF cells were cultured in a DMEM culture medium containing 10% FBS. Cells were plated according to the method as described above (12 well plate was plated with aseptic treated slides). When cells grew to a confluence of 60-70%, lipid droplets were induced with OA for 30 h according to the method as described above.
At the time point of 6th hour after initiation of induction, the cells were treated (treated for 24 hours) with Compound 1A or Compound 2A (compound concentrations were 50 μM, 15.8 μM, 5 μM, 1.58 μM, 0.5 μM, 0.158 μM) according to the method as described above.

[3] = system: lipid droplets in 3T3-L1 fat precursor cell differentiated fat cells; test: Lipid droplets in 3T3-L1 fat precursor cell differentiated fat cells; type: cell-based, mouse; conditions: 3T3-L1 differentiated fat cells, 5 μM, 24 h

O=C1Nc2ccc(I)cc2C1=Cc1cc(Br)c(O)c(Br)c1 [Compound A1, 3-(3,5-dibromo-4-hydroxylbenzylidene)-5-iodoindolin-2-one, reference compound]
binding to LC3 (LC3): can bind to LC3 with affinity | endogenous lipid droplets (amount) [1]: no significant effect | Kd (LC3B): 4.76 µM | lipid droplets (number and size) [2]: did not significantly decrease or become smaller | amount/size of lipid droplets [3]: no significant effect
